Read-outs that look alike come from different tables or passages of the source.
How the values were obtained:
[1] = fatal intoxication after ingestion of Ayahuasca preparation; cited from earlier work
[2] = type: in vivo, male FVB/N mice; conditions: for Cmax / MRT: male, FVB/N, mouse, ip, 2 mg/kg; for AUC0→t (AUC0→60 min): 0-60 min
[3] = rats, 1 hour after bufotenine 30 mg/kg s.c.; cited from earlier work

Which results are given for `COc1ccc2[nH]cc(CCN(C)C)c2c1` [5-MeO-DMT, 5-Methoxy-N,N-dimethyltryptamine, reference compound]?
concentration in heart blood of decedent [1]: 1880 ng/mL; Cmax ([2]; serum): 298 ± 29 ng/mL; MRT ([2]; serum): 17.6 min; serum concentration at 60 min relative to Cmax ([2]; mice, 60 min after 5-MeO-DMT 2 mg/kg i.p.): 4.4%; AUC0→t (AUC0→90 min) ([2]; mice, serum, after 5-MeO-DMT 2 mg/kg i.p., 0-90 min): 6,000 ± 1,240 µg·min/L

With `CN(C)CCc1c[nH]c2ccc(O)cc12` [Bufotenine, bufotenine] as the compound, how does the Cmax ([2]; serum) read?
Its Cmax is 10.6 ± 2.3 ng/mL.

And the MRT ([2]; serum)?
Its MRT is 24.3 min.

What about the “serum concentration at 90 min” value ([2]; mice, 90 min after 5-MeO-DMT 2 mg/kg i.p., metabolite) of the same compound?
The value was “below the LLOQ”.

And the “systemic exposure (AUC) to bufotenine relative to that to 5-MeO-DMT” value ([2]; mice, after 5-MeO-DMT 2 mg/kg i.p.)?
Its value is “about 1/14”.

What about the Tmax ([2]; mice, serum, after 5-MeO-DMT 2 mg/kg i.p., bufotenine as metabolite) of the same compound?
Its Tmax is 13.3 ± 5.8 min.

And the “AUC0→t (AUC0→60 min)” value ([2]; mice, serum, after 5-MeO-DMT 2 mg/kg i.p., metabolite)?
Its value is 388 ± 82 µg·min/L.

What about the “AUC0→t (AUC0→60 min)” value ([2]; mice, serum, after 5-MeO-DMT 2 mg/kg i.p., metabolite, listed as bufotenine) of the same compound?
The value was 388 µg·min/L.

What about the “brain over blood ratio of drug concentration” value [3] of the same compound?
Its value is 1/15.

From PMC2879651 (Bioanalysis, 2009)
